The text below walks through data of PMC6449294, “SNAPshots of the MCHR1: a Comparison Between the PET-Tracers [^18F]FE@SNAP and [^11C]SNAP-7941” (Molecular Imaging and Biology, 2018).

Like-named read-outs stand apart in the source and are kept apart here.

As usually defined, the Ki is the equilibrium dissociation constant of an inhibitor or competing ligand from its target.

Data set [1] deals with MCHR1. Set-up: method as in PMID 28808288. The settings on record: previous experiments; read-out: Affinity to MCHR1 (Ki); cited from earlier work.
On the set-up of data set [2]: method as in PMID 23829932, PMID 24106662, PMID 27033361. The settings on record: result in words, not determined in this paper for this tracer; cited from earlier work.
Data set [3] in a line: Ex vivo metabolites in rat brain (radio-HPLC). How it is done: For the analysis of potential radiometabolites, blood samples (50–80 μl) from rats were withdrawn at 10 and 45 min for [^11C]SNAP-7941 and at 10, 30, and 60 min for [^18F]FE@SNAP and immediately subjected to the equivalent amount of acetonitrile, homogenized, and stored on ice before processing. Additionally, [^18F]FE@SNAP was administered to three rats, which were sacrificed after 45 min. Whole brains were harvested and homogenized with equivalent amounts (500–800 μl) of acetonitrile and 0.9 % saline solution using an ULTRA-TURRAX® (T25 basic, IKA Laboratory Equipment, Staufen, Germany). Subsequently, blood and brain were centrifuged (23,000 ×g, 4 min, 4 °C; Hettich Universal 30RF, Tuttlingen, Germany), and the obtained supernatant was analyzed by an analytical HPLC equipped with a radioactivity detector (radio-HPLC) (stationary phase: Chromolith® Performance RP-18e, 100–4.6 mm; precolumn: Chromolith® Guard Cartridge RP-18e, 5–4.6 mm; Merck, Darmstadt, Germany), mobile phase: (water/acetic acid 97.5/2.5 v/v; 2.5 g/l ammonium acetate; pH 3.5)/acetonitrile 70/30 v/v; flow: 1 ml/min, λ = 254 nm). The ratio between metabolite and intact radiotracer was calculated using quantitative HPLC analysis.

Data set [4] relates to P-gp/BCRP. In words: Small animal PET of mouse brain, vehicle vs pretreatment with P-gp/BCRP inhibitor TQD. The class given is in vivo. The settings on record: mice, TQD 15 mg/kg 30 min before radiotracer. How it is done:
Ten-week-old male rats (412 ± 58 g, Sprague-Dawley, HIM:OFA, n = 30) and 12-week-old male mice (24 ± 6 g, BALB/cAnNRj, n = 7) were purchased from the Division of Laboratory Animal Science and Genetics, Himberg, Austria. Animals were kept under conventional housing conditions (22 ± 1 °C; 40–70 % humidity) with food and water supply ad libitum and 12-h day/night cycle. All animals were treated according to the European Union rules on animal care and respective animal experiments were approved by the Austrian Ministry of Sciences, Research and Economy (BMWFW-66.009/0029-WF/V/3b/20159). For in vivo imaging, animals were anesthetized using 1.5–2 % isoflurane mixed with oxygen (1.5–2 l/min) to avoid movement during the examination. Anesthesia as well as vital parameters were monitored during the time interval of PET acquisition. Radioligands and non-labeled compounds were administered intravenously via the lateral tail vein.
Anesthetized rats and mice were immobilized in a multimodal animal carrier unit (MACU; medres®—medical research GmbH, Cologne, Germany). The body temperature was preserved at 37 °C throughout the whole experiment. […]

For `COCC1=C(C(=O)O[11CH3])C(c2ccc(F)c(F)c2)N(C(=O)NCCCN2CCC(c3cccc(NC(C)=O)c3)CC2)C(=O)N1` (stereo not drawn) [[^11C]SNAP-7941], in data set [1], the Ki is 3.91 ± 0.74 nM. Besides, in data set [2], the “Metabolism in rat brain” value is on record as “Stable”.
`COCC1=C(C(=O)OCC[18F])C(c2ccc(F)c(F)c2)N(C(=O)NCCCN2CCC(c3cccc(NC(C)=O)c3)CC2)C(=O)N1` (stereo not drawn) [[^18F]FE@SNAP]: the Ki in data set [1] was 9.98 ± 1.12 nM. The “intact tracer in rat brain” value in data set [3] (45 min) was found to be 22.37 ± 5.8%. Moreover, in data set [3] (ex vivo, result in words), the “Metabolism in rat brain” value is “Rapidly metabolized”. The “increase of brain uptake in TQD blocking group vs vehicle” value in data set [4] is 1.93 fold.
